assay: LC-MS quantification of conversion of protodrug in presence of Compound 111 in rat plasma-EDTA; details: FIG. 2, 37° C., Compound 111 100 μg/mL, protodrug 250 ng/mL
Procedure: Liquid chromatography-mass spectrometry (LC-MS) was used to quantify the conversion of Compound B protodrug to MMAE and Compound F to exatecan in the presence of Compound 111. Compound 111 (100 μg/mL) was added to rat plasma-EDTA and incubated at 37° C. The protodrugs, Compound B and Compound F, were added to the plasma with the final concentration of 250 ng/mL. At each time point, triplicate aliquots were transferred to a plate with various pH extraction conditions and precipitated with acetonitrile for Compound B/MMAE or methanol for Compound F/exatecan. LC-MS/MS analyzed the extracted samples with the instrument methods previously established for each analyte. The conversion percentage was calculated based on the initial concentration of protodrugs and the formation of exatecan and MMAE in mole/mL.

In the case of `CC[C@H](C)[C@@H]([C@@H](CC(=O)N1CCC[C@H]1[C@H](OC)[C@@H](C)C(=O)N[C@H](C)[C@@H](O)c1ccccc1)OC)N(C)C(=O)[C@@H](NC(=O)[C@H](C(C)C)N(C)C(=O)O[C@H]1/C=C/CC[C@@](C)(C(=O)N[C@@H](CC(=O)O)C(=O)O)CC1)C(C)C` [Compound B], the “conversion to MMAE after reaction with Compound 111” value is reported as “rapidly converted”.

For `CC[C@@]1(O)C(=O)OCc2c1cc1n(c2=O)Cc2c-1nc1cc(F)c(C)c3c1c2[C@@H](NC(=O)O[C@H]1/C=C/CC[C@@](C)(C(=O)NCCOCCOCCOCCN(CCOCCOCCOCCC(=O)O)CCOCCOCCOCCC(=O)O)CC1)CC3` [Compound F], the “conversion to exatecan after reaction with Compound 111” value was “rapidly converted”.

assay: LCMS analysis of drug release by tetrazines (TCO-MMAE Compound B); details: tetrazine 20 μM, Compound B 10 μM, PBS
Procedure: A solution of each tetrazine (20 μM final concentration) in PBS is mixed with TCO-MMAE Compound B (10 μM final concentration). The solution is mixed thoroughly and an aliquot removed at the appropriate time for analysis by LCMS.

`Cc1nnc(-c2ccc(CN)c(C(F)(F)F)c2)nn1` and `Cc1nnc(-c2ccc(C(F)(F)F)c(CN)c2)nn1` are the same in “% Compound B consumed (1 h)” value: 100% for the first, 100% for the second.

`Cc1nnc(-c2ccccn2)nn1` and `Cc1nnc(-c2ncccn2)nn1` are the same in “% Compound B consumed (1 h)” value: 100% for the first, 100% for the second.

Going from `Cc1nnc(-c2cn(C)cn2)nn1` to `Cc1nnc(-c2cocn2)nn1`, the “% Compound B consumed (1 h)” value falls from 74% to 42%.

For `Cc1nnc(-n2cccn2)nn1`, the “% Compound B consumed (1 h)” value was 81%.

Reference: patent US20260335446A1, “TETRAZINE-BASED TARGETING AGENTS FOR IN VIVO DELIVERY OF A PAYLOAD” (Tambo, Inc., priority 2023, published 2026)
